US11098035B2, “Compounds, compositions, and methods for increasing CFTR activity” (Proteostasis Therapeutics, Inc., priority 2014, dated 2021)

These compounds were tested against T1, ΔF508-CFTR (Homo sapiens, UniProt P13569, DEL508-508) (assay: Ussing Measurements). Conditions: compound at 10 uM and VX-809 at 3 uM, activity as % of VX-809 (3 uM); CFTRinh-172 inhibitable short-circuit current; hBEs homozygous for ΔF508, 24 h treatment.
T1 construct: Primary lung epithelial cells homozygous for the Cystic Fibrosis-causing ΔF508 mutation were differentiated for a minimum of 4 weeks; endogenous in cells; host or cells: primary human bronchial (lung) epithelial cells (hBE) homozygous for ΔF508, differentiated at an air-liquid interface
T1 sequence (P13569 with tags, fused parts or gaps DEL508-508): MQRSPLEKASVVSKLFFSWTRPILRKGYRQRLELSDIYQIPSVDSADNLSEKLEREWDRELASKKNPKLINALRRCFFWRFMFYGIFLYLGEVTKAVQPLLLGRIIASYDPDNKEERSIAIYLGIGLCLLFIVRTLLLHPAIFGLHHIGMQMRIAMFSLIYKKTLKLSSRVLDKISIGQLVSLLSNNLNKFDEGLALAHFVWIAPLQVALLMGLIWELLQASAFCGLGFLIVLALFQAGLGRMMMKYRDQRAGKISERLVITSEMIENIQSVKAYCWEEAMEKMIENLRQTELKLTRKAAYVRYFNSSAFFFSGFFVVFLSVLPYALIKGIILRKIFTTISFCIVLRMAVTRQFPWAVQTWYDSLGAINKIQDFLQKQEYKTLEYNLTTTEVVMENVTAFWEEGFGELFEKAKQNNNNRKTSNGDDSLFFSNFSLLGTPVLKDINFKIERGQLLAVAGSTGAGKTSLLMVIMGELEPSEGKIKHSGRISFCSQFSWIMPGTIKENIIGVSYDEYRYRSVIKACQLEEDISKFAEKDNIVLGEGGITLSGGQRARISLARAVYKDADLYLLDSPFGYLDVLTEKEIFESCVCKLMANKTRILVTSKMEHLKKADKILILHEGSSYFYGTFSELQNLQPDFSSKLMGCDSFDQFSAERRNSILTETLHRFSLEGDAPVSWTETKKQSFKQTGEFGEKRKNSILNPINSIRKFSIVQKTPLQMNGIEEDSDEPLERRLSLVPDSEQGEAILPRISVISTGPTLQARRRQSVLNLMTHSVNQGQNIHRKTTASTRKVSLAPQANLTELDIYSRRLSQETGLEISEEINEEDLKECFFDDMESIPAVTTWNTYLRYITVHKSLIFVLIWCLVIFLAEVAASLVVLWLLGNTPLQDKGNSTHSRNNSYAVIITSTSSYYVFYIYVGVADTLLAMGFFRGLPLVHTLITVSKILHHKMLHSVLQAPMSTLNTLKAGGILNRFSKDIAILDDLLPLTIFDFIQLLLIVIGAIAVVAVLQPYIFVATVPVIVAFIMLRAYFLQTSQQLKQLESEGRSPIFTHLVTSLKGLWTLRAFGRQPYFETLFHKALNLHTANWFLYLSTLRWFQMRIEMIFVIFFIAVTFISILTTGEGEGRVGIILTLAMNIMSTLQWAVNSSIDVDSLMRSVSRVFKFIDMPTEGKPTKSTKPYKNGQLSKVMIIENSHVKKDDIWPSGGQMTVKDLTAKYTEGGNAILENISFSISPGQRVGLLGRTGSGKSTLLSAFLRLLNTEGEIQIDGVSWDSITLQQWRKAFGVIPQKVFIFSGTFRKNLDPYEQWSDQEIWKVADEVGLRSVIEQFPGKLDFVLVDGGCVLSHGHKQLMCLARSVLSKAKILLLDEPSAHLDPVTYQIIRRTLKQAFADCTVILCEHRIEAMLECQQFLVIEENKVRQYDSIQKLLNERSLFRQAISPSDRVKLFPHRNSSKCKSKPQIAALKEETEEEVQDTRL
Assay type: cell-based
Experimental: As discussed above, Ussing measurements are used to measure CFTR activity. In this method, primary lung epithelial cells (hBEs) homozygous for the Cystic Fibrosis-causing ΔF508 mutation are differentiated for a minimum of 4 weeks in an air-liquid interface on SnapWell filter plates prior to the Ussing measurements. Cells are apically mucus-washed for 30 minutes prior to treatment with compounds. The basolateral media is removed and replaced with media containing the compound of interest diluted to its final concentration from DMSO stocks. Treated cells are incubated at 37° C. and 5% CO2 for 24 hours. […] The short-circuit current is measured in voltage clamp-mode (Vhold=0 mV), and the entire assay is conducted at a temperature of 36° C.-36.5° C. Once the voltages stabilized, the chambers are clamped, and data is recorded by pulse readings every 5 seconds. Following baseline current stabilization, the following additions can be applied and the changes in current and resistance of the cells can be monitored: • 1. […]
The inhibitable current (that current that is blocked by CFTRinh-172) is measured as the specific activity of the ΔF508-CFTR channel, and increases in response to compound in this activity over that observed in vehicle-treated samples are identified as the correction of ΔF508-CFTR function imparted by the compound tested. […]
With O=C(NC1CC(n2nncc2CO)C1)c1cc(-c2ccccc2)no1 (stereo not drawn) [Example 5, N-trans-3-(5-(hydroxymethyl)-1H-1,2,3-triazol-1-yl)cyclobutyl)-3-phenylisoxazole-5-carboxamide] the Ussing was “## (^## indicates activity ≥200% of VX-809 (3 uM) with compound at 10 uM and VX-809 at 3 uM)”. With C[C@@H](O)c1nnc(C2CC(NC(=O)c3cc(-c4ccccc4)no3)C2)o1 (some centres unmarked) [Example 6] the Ussing was “## (^## indicates activity ≥200% of VX-809 (3 uM) with compound at 10 uM and VX-809 at 3 uM)”.

These compounds were tested against T1, ΔF508-CFTR (assay: hBE Equivalent Current (Ieq) Assay). Conditions: compound at 10 uM and VX-809 at 1 uM, activity as % of VX-809 (1 uM); AUC of equivalent chloride current; primary lung epithelial cells homozygous for ΔF508, 24 h treatment.
Assay type: cell-based
Experimental: Primary lung epithelial cells homozygous for the Cystic Fibrosis-causing ΔF508 mutation were differentiated for a minimum of 4 weeks in an air-liquid interface on Costar 24 well HTS filter plates prior to the equivalent current (Ieq) measurements. Cells were apically mucus-washed for 30 minutes 24 h prior to treatment with compounds. The basolateral media was removed and replaced with media containing the compound of interest diluted to its final concentration from DMSO stocks. Treated cells were incubated at 37° C. and 5% CO2 for 24 hours. At the end of the treatment period, the media was changed to the Ieq experimental solution for 30 minutes before the experiment and plates are maintained in a CO2-free incubator during this period. The plates containing the cells were then placed in pre-warmed heating blocks at 36° C.±0.5 for 15 minutes before measurements are taken. The transepithelial voltage (VT) and conductance (GT) were measured using a custom 24 channel current clamp (TECC-24) with 24 well electrode manifold. The Ieq assay measurements were made following additions with standardized time periods: • 1. The baseline VT and GT values were measured for approximately 20 minutes. • 2. Benzamil was added to block ENaC for 15 minutes. • 3. Forskolin plus VX-770 were added to maximally activate ΔF508-CFTR for 27 minutes. • 4. Bumetanide was added to inhibit the NaK2Cl cotransporter and shut-off secretion of chloride.
The activity data captured was the area under the curve (AUC) for the traces of the equivalent chloride current. The AUC was collected from the time of the forskolin/VX-770 addition until the inhibition by bumetanide addition. Correction in response to compound treatment was scored as the increase in the AUC for compound-treated samples over that of vehicle-treated samples.
The results are shown below in Table 2. ++ indicates activity ≥25% run at 10 uM of VX-809 at 1 uM, + indicates activity 10 to <25% run at 10 uM of VX-809 at 1 uM, **indicates activity ≥200% of VX-809 (1 uM) with compound at 10 uM and VX-809 at 1 uM; * indicates activity 100-200% of VX-809 (1 uM) with compound at 10 uM and VX-809 at 1 uM. ^## indicates activity ≥200% of VX-809 (3 uM) with compound at 10 uM and VX-809 at 3 uM; ^# indicates activity 100-200% of VX-809 (3 uM) with compound at 10 uM and VX-809 at 3 uM.
For C[C@@H](O)c1nnc(C2CC(NC(=O)c3cc(-c4ccccc4)no3)C2)o1 (some centres unmarked) [Example 6], the Ieq was “* (* indicates activity 100-200% of VX-809 (1 uM) with compound at 10 uM and VX-809 at 1 uM)”. In the case of C[C@@H](O)c1nnc(CC2CC(NC(=O)c3cc(-c4ccccc4)no3)C2)s1 (stereo partly drawn) [Example 42, 3-Phenyl-N-[(1r,3r)-3-([5-[(1R)-1-hydroxyethyl]-1,3,4-thiadiazol-2-yl]methyl)cyclobutyl]-1,2-oxazole-5-carboxamide], the Ieq is reported as “* (* indicates activity 100-200% of VX-809 (1 uM) with compound at 10 uM and VX-809 at 1 uM)”. With C[C@@H](O)c1nnc(C[C@H]2C[C@@H](NC(=O)c3cc(-c4ccc(F)cc4)no3)C2)s1 [Example 43, 3-(4-Fluorophenyl)-N-[(1s,3s)-3-([5-[(1R)-1-hydroxyethyl]-1,3,4-thiadiazol-2-yl]methyl)cyclobutyl]-1,2-oxazole-5-carboxamide] the Ieq was “** (**indicates activity ≥200% of VX-809 (1 uM) with compound at 10 uM and VX-809 at 1 uM)”. C[C@@H](O)c1nnc(C[C@H]2C[C@H](NC(=O)c3cc(-c4ccc(F)cc4)no3)C2)s1 [Example 44, 3-(4-Fluorophenyl)-N-[(1r,3r)-3-([5-[(1R)-1-hydroxyethyl]-1,3,4-thiadiazol-2-yl]methyl)cyclobutyl]-1,2-oxazole-5-carboxamide] was tested, and the Ieq was “** (**indicates activity ≥200% of VX-809 (1 uM) with compound at 10 uM and VX-809 at 1 uM)”. In the case of C[C@@H](O)c1nnc(C[C@H]2C[C@@H](NC(=O)c3cc(-c4cccs4)no3)C2)o1 [Example 45, N-[(1s,3s)-3-([5-[(1R)-1-Hydroxyethyl]-1,3,4-oxadiazol-2-yl]methyl)cyclobutyl]-3-(thiophen-2-yl)-1,2-oxazole-5-carboxamide], the Ieq is reported as “* (* indicates activity 100-200% of VX-809 (1 uM) with compound at 10 uM and VX-809 at 1 uM)”. For C[C@@H](O)c1nnc(C[C@H]2C[C@H](NC(=O)c3cc(-c4cccs4)no3)C2)o1 [Example 46, N-[(1r,3r)-3-([5-[(1R)-1-Hydroxyethyl]-1,3,4-oxadiazol-2-yl]methyl)cyclobutyl]-3-(thiophen-2-yl)-1,2-oxazole-5-carboxamide], the Ieq was “* (* indicates activity 100-200% of VX-809 (1 uM) with compound at 10 uM and VX-809 at 1 uM)”. C[C@@H](O)c1nnc([C@H]2C[C@H](NC(=O)c3onc(-c4ccccc4)c3F)C2)o1 [Example 50, 4-Fluoro-3-phenyl-N-[(1r,3r)-3-[5-[(1R)-1-hydroxyethyl]-1,3,4-oxadiazol-2-yl]cyclobutyl]-1,2-oxazole-5-carboxamide] was tested, and the Ieq was “* (* indicates activity 100-200% of VX-809 (1 uM) with compound at 10 uM and VX-809 at 1 uM)”. With C[C@H](O)c1cnnn1C[C@H]1C[C@@H](NC(=O)c2cc(-c3ccccc3)no2)C1 [Example 57, 3-Phenyl-N-[(1s,3s)-3-([5-[(1S)-1-hydroxyethyl]-1H-1,2,3-triazol-1-yl]methyl)cyclobutyl]-1,2-oxazole-5-carboxamide] the Ieq was “** (**indicates activity ≥200% of VX-809 (1 uM) with compound at 10 uM and VX-809 at 1 uM)”. For C[C@H](O)c1cn(C[C@H]2C[C@@H](NC(=O)c3cc(-c4ccccc4)no3)C2)nn1 [Example 58, 3-Phenyl-N-[(1s,3s)-3-([4-[(1S)-1-hydroxyethyl]-1H-1,2,3-triazol-1-yl]methyl)cyclobutyl]-1,2-oxazole-5-carboxamide], the Ieq was “* (* indicates activity 100-200% of VX-809 (1 uM) with compound at 10 uM and VX-809 at 1 uM)”.
